“And” between values parts separate entries of the source, which are not always exact repeats. Equal values may be shown once. Toxic doses and inconclusive results are not listed. Cut-off read from the data, not from the text of the source: active = T/C of 150% or more; inactive = T/C below 125%.
Test system: L1210 leukemia ip in BDF1 mice, survival T/C
Test: NCI In Vivo Anticancer Drug Screen. Data for tumor model L1210 Leukemia (intraperitoneal) in B6D2F1 (BDF1) mice
Details: endpoint: mean survival time, higher = longer survival
Outline: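 Tumor was transplanted into mice, which were then dosed with test compound or vehicle alone. Survival was recorded for each group, and the treated figure was expressed relative to the control figure.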

[1] = dose: 100.0 mg/kg/injection, schedule: Q01DX009 (ip), vehicle: saline with Tween-80
[2] = dose: 200.0 mg/kg/injection, schedule: Q01DX009 (ip), vehicle: saline with Tween-80
[3] = dose: 400.0 mg/kg/injection, schedule: Q01DX009 (ip), vehicle: saline with Tween-80
[4] = dose: 100.0 mg/kg/injection, schedule: Q01DX001 (ip), vehicle: saline
[5] = dose: 200.0 mg/kg/injection, schedule: Q01DX001 (ip), vehicle: saline
[6] = dose: 100.0 mg/kg/injection, schedule: Q04DX003 (ip), vehicle: Klucel (hydroxypropylcellulose) (HPC)
[7] = dose: 200.0 mg/kg/injection, schedule: Q04DX003 (ip), vehicle: Klucel (hydroxypropylcellulose) (HPC)
[8] = dose: 400.0 mg/kg/injection, schedule: Q04DX003 (ip), vehicle: Klucel (hydroxypropylcellulose) (HPC)
[9] = dose: 400.0 mg/kg/injection, schedule: Q01DX001 (ip), vehicle: saline
[10] = dose: 200.0 mg/kg/injection, schedule: Q01DX009 (ip), vehicle: Klucel (hydroxypropylcellulose) (HPC)
[11] = dose: 400.0 mg/kg/injection, schedule: Q01DX009 (ip), vehicle: Klucel (hydroxypropylcellulose) (HPC)
[12] = dose: 12.5 mg/kg/injection, schedule: Q04DX002 (ip), vehicle: saline with Tween-80

Measured: T/C

COc1cc(Cl)ccc1NC(=O)COc1ccc(Cl)cc1
inactive: [1] 92 % of control | [2] 92 % of control | [3] 86 % of control

O=c1oc2ccc3ccccc3c2c(-c2ccc(O)cc2)c1-c1ccccc1
inactive: dose: 100.0 mg/kg/injection, schedule: Q01DX001 (ip), vehicle: saline with Tween-80 89 % of control | dose: 200.0 mg/kg/injection, schedule: Q01DX001 (ip), vehicle: saline with Tween-80 92 % of control | dose: 400.0 mg/kg/injection, schedule: Q01DX001 (ip), vehicle: saline with Tween-80 92 % of control

Cc1coc(NS(=O)(=O)c2ccc(N=Nc3ccc(O)c4ncccc34)cc2)c1C
inactive: [4] 102 % of control | [5] 108 % of control

CCCN1C(c2ccccc2)=CN(Cc2ccccc2)C=C1c1ccccc1
inactive: dose: 100.0 mg/kg/injection, schedule: Q04DX002 (ip), vehicle: Klucel (hydroxypropylcellulose) (HPC) 95 % of control | dose: 200.0 mg/kg/injection, schedule: Q04DX002 (ip), vehicle: Klucel (hydroxypropylcellulose) (HPC) 103 % of control | dose: 400.0 mg/kg/injection, schedule: Q04DX002 (ip), vehicle: Klucel (hydroxypropylcellulose) (HPC) 106 % of control

O=C(O)c1cccc(C(=O)O)n1
inactive: dose: 75.0 mg/kg/injection, schedule: Q01DX001 (ip), vehicle: acetone 98 % of control | dose: 150.0 mg/kg/injection, schedule: Q01DX001 (ip), vehicle: acetone 97 % of control

CC(C)(C(=O)O)c1ccccc1C(=O)c1ccccc1
inactive: [6] 97 % of control | [7] 101 % of control | [8] 105 % of control

CC(C)(O)C(O)CC1=C(O)c2ccccc2C(=O)C1=O (stereo not given)
inactive: dose: 100.0 mg/kg/injection, schedule: Q01DX001 (ip), vehicle: water 106 % of control | dose: 200.0 mg/kg/injection, schedule: Q01DX001 (ip), vehicle: water 97 % of control | dose: 400.0 mg/kg/injection, schedule: Q01DX001 (ip), vehicle: water 93 % of control

Cc1ccc([N+](=O)[O-])cc1NC(=O)C(Cl)(Cl)Cl
inactive: [1] 94 % of control | [2] 98 % of control | [3] 100 % of control

NS(=O)(=O)c1ccc(N=Nc2nc3[nH]c(=O)[nH]c(=O)c3[nH]2)cc1
inactive: dose: 50.0 mg/kg/injection, schedule: Q01DX009 (ip), vehicle: saline with Tween-80 97 % of control | [1] 94 % of control | [2] 94 % of control

CCCCC(=O)N/N=C/c1ccc(NC(C)=O)cc1
inactive: [4] 102 % of control | [5] 102 % of control | [9] 102 % of control

OC(Cc1ccnc2ccccc12)C(Cl)(Cl)Cl (stereo not given)
inactive: dose: 100.0 mg/kg/injection, schedule: Q01DX009 (ip), vehicle: saline 95 % of control | dose: 200.0 mg/kg/injection, schedule: Q01DX009 (ip), vehicle: saline 101 % of control | dose: 400.0 mg/kg/injection, schedule: Q01DX009 (ip), vehicle: saline 95 % of control

CCCCCCC(/C=C/C=C/c1ccccc1)=N\O
inactive: [6] 96 % of control | [10] 91 % of control | [7] 90 % of control | [11] 91 % of control | [8] 98 % of control

O=S(=O)(/C=C(/Cl)c1ccccc1)c1ccccc1
inactive: dose: 25.0 mg/kg/injection, schedule: Q01DX009 (ip), vehicle: acetone 92 % of control | dose: 50.0 mg/kg/injection, schedule: Q01DX009 (ip), vehicle: acetone 90 % of control | dose: 100.0 mg/kg/injection, schedule: Q01DX001 (ip), vehicle: acetone 101 % of control | dose: 100.0 mg/kg/injection, schedule: Q04DX003 (ip), vehicle: acetone 103 % of control | dose: 200.0 mg/kg/injection, schedule: Q01DX001 (ip), vehicle: acetone 102 % of control | dose: 400.0 mg/kg/injection, schedule: Q01DX001 (ip), vehicle: acetone 104 % of control

CCC[As](=O)(O)Cc1ccccc1C
inactive: dose: 0.78 mg/kg/injection, schedule: Q01DX009 (ip), vehicle: saline with Tween-80 95 % of control | dose: 1.56 mg/kg/injection, schedule: Q01DX009 (ip), vehicle: saline with Tween-80 97 % of control | dose: 1.56 mg/kg/injection, schedule: Q04DX003 (ip), vehicle: saline with Tween-80 93 % of control | dose: 3.12 mg/kg/injection, schedule: Q01DX009 (ip), vehicle: saline with Tween-80 97 % of control | dose: 3.12 mg/kg/injection, schedule: Q04DX002 (ip), vehicle: saline with Tween-80 103 % of control | dose: 3.12 mg/kg/injection, schedule: Q04DX003 (ip), vehicle: saline with Tween-80 97 % of control | dose: 6.25 mg/kg/injection, schedule: Q01DX001 (ip), vehicle: saline with Tween-80 106 % of control | dose: 6.25 mg/kg/injection, schedule: Q01DX009 (ip), vehicle: saline with Tween-80 101 % of control and 103 % of control | dose: 6.25 mg/kg/injection, schedule: Q04DX003 (ip), vehicle: saline with Tween-80 95 % of control | dose: 12.5 mg/kg/injection, schedule: Q01DX001 (ip), vehicle: saline with Tween-80 109 % of control | [12] 90 % of control | dose: 12.5 mg/kg/injection, schedule: Q04DX003 (ip), vehicle: saline with Tween-80 103 % of control

O=Cc1ccc(C(=O)O)cc1O
inactive: dose: 100.0 mg/kg/injection, schedule: Q04DX003 (ip), vehicle: saline with Tween-80 98 % of control | dose: 200.0 mg/kg/injection, schedule: Q04DX003 (ip), vehicle: saline with Tween-80 102 % of control

CN(C)C(N1CC1)N1CC1
inactive: dose: 10.0 mg/kg/injection, schedule: Q04DX002 (ip), vehicle: saline 112 % of control | dose: 20.0 mg/kg/injection, schedule: Q04DX002 (ip), vehicle: saline 108 % of control | dose: 40.0 mg/kg/injection, schedule: Q04DX002 (ip), vehicle: saline 97 % of control

Clc1ccc(-c2cc(=[N+]3CCC4(CC3)SSC3(CC[N+](=c5cc(-c6ccc(Cl)cc6)ss5)CC3)S4)ss2)cc1 (stereo not given)
inactive: dose: 25.0 mg/kg/injection, schedule: Q01DX009 (ip), vehicle: water 90 % of control | dose: 50.0 mg/kg/injection, schedule: Q01DX009 (ip), vehicle: water 90 % of control | dose: 100.0 mg/kg/injection, schedule: Q01DX009 (ip), vehicle: water 88 % of control | dose: 400.0 mg/kg/injection, schedule: Q01DX009 (ip), vehicle: water 87 % of control

CCCCCCCCCC(=O)CCCCCC
inactive: dose: 100.0 mg/kg/injection, schedule: Q01DX009 (ip), vehicle: Klucel (hydroxypropylcellulose) (HPC) 96 % of control | [6] 95 % of control | [10] 98 % of control | [7] 103 % of control | [11] 107 % of control | [8] 93 % of control

COC1=C(N=[N+]=[N-])C(=O)c2ccccc2C1=O
inactive: dose: 6.25 mg/kg/injection, schedule: Q04DX002 (ip), vehicle: saline with Tween-80 104 % of control | [12] 96 % of control

O=C(CCCC(=O)N/N=C/c1ccc(O)cc1O)N/N=C\c1ccc(O)cc1O
inactive: dose: 50.0 mg/kg/injection, schedule: Q01DX001 (ip), vehicle: saline 90 % of control | [4] 96 % of control | [5] 96 % of control | [9] 93 % of control
